Results: ChEMBL document CHEMBL1201862, “PubChem BioAssay data set” (2004)
The source made the active and inactive calls.

What was measured:
[1] = target: Cytochrome P450 2D6 (Homo sapiens, UniProt P10635);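 further: CYP2D6 member of a cytochrome P450 panel assay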
[2] = target: T1, Cytochrome P450 1A2 (Homo sapiens, UniProt P05177);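 further: PubChem cytochrome P450 panel assay, CYP1A2 panel member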
T1 sequence (P05177 whole entry): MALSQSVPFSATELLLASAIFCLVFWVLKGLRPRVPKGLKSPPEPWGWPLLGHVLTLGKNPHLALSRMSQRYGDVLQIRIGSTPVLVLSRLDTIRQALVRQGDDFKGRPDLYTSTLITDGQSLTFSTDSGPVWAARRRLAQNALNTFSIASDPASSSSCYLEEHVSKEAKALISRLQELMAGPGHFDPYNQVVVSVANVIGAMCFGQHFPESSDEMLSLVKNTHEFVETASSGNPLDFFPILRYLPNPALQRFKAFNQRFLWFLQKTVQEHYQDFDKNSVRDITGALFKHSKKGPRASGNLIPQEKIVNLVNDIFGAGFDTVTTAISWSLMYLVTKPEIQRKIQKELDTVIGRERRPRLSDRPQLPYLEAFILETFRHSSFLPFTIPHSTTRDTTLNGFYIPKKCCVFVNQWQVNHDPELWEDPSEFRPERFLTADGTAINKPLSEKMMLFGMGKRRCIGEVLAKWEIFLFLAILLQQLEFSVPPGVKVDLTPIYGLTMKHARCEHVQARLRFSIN

[3] = target: T2, Replicative DNA helicase DnaB (Mycobacterium tuberculosis, UniProt P9WMR3); test: DnaB intein splicing inhibitors, dose response, biochemical, cell-free fluorescence (AID 449749); format: functional
T2 sequence (P9WMR3 whole entry): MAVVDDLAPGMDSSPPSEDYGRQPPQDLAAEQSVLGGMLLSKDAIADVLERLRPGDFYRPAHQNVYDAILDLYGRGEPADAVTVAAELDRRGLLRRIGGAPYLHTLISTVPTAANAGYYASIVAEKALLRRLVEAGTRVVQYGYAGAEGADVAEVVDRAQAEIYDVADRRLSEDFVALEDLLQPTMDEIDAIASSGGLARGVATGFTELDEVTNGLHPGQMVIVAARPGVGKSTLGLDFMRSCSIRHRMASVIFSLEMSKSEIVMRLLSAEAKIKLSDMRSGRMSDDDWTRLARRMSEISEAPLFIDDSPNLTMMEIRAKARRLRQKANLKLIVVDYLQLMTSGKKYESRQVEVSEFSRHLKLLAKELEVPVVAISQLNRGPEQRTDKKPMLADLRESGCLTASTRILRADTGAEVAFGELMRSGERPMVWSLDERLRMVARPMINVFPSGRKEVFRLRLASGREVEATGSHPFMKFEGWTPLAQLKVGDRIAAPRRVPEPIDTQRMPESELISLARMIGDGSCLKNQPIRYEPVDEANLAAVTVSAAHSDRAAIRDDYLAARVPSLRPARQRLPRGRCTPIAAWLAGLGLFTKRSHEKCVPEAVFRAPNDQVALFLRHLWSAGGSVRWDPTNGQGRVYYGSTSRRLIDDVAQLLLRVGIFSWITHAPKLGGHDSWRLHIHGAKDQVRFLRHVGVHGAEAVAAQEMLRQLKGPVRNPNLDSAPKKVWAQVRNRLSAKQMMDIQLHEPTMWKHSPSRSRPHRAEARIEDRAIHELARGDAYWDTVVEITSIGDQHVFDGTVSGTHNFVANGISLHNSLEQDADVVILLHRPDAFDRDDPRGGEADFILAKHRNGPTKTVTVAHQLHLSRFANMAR

[4] = target: T3, Protein RecA (Mycobacterium tuberculosis, UniProt P9WHJ3); test: Fluorescence Cell-Free Homogeneous Dose Retest to Identify Inhibitors of RecA-Intein Splicing Activity. [Related pubchem assays (depositor defined):AID2097, AID2223, AID489010, AID492950]; format: functional
T3 sequence (P9WHJ3 whole entry): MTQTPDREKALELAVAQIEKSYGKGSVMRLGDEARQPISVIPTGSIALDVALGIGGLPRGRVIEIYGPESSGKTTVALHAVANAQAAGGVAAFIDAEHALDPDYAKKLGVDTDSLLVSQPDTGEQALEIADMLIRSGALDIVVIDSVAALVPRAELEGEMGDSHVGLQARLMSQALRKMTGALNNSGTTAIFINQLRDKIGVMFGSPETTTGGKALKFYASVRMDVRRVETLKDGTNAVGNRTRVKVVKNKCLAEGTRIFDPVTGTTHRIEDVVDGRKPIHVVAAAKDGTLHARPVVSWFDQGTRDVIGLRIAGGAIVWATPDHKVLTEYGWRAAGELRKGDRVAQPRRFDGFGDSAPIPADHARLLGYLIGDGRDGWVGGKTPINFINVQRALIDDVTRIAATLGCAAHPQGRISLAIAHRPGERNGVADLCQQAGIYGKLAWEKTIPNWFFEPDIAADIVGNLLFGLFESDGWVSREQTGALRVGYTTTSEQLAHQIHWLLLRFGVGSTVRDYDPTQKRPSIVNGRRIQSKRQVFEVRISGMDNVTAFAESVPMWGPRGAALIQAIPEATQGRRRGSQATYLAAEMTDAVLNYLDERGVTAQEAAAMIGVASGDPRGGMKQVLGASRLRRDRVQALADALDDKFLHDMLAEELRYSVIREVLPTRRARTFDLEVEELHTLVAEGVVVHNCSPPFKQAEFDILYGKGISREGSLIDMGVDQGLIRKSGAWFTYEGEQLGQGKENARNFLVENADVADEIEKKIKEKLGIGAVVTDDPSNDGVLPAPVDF

[5] = viability of uninfected HEp-2 cells – cell-based, HTS, cytotoxicity control for RSV inhibitor project, dose response (AID 2410); format: functional; settings: human respiratory syncytial virus
[6] = target: Cytochrome P450 2C9 (Homo sapiens, UniProt P11712)
[7] = target: Cytochrome P450 2C19 (Homo sapiens, UniProt P33261); test: Cytochrome panel assay with activity outcomes. Panel member name: p450-cyp2c19 Compounds with AC50 equal or less than 10 uM are considered active; format: functional; settings: read-out: AC50
[8] = target: T4, Streptokinase A (Streptococcus pyogenes serotype M1, UniProt P10520); test: viability-normalized secreted streptokinase activity reduction – plasminogen activation absorbance, OD405, dose response (AID 1914); format: functional, Streptococcus pyogenes M1 GAS;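 further: secreted streptokinase activity via plasminogen activation per viability signal from cell pellet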
T4 sequence (P10520 whole entry): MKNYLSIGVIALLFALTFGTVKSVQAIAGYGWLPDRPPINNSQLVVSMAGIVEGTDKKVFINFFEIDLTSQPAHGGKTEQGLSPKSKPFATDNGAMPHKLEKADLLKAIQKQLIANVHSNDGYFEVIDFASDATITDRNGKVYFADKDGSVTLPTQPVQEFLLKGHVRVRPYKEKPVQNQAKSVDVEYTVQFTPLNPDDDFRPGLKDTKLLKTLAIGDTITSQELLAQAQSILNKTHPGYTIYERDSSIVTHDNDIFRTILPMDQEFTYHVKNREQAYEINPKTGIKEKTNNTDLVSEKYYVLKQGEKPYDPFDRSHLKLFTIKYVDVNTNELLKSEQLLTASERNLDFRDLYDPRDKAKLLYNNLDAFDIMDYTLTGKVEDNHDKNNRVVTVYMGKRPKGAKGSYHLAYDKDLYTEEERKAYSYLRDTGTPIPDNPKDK

[9] = target: Cytochrome P450 3A4 (Homo sapiens, UniProt P08684);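 further: CYP3A4 tested as one member of a cytochrome P450 panel screen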
Sequence of Cytochrome P450 3A4 (P08684 whole entry): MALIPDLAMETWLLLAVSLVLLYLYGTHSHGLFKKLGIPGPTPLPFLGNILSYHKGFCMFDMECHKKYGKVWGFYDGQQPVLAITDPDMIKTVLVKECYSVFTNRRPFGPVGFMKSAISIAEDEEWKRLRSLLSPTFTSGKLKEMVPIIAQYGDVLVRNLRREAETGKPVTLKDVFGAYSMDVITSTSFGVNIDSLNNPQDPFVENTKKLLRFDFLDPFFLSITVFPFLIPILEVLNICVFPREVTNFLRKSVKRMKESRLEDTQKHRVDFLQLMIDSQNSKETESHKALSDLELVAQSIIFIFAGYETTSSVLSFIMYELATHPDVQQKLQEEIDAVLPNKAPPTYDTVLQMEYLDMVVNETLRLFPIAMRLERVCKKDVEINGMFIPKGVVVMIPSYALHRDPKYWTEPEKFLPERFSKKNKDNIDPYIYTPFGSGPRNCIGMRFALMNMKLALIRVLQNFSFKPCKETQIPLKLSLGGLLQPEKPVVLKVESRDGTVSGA

Sequence of Cytochrome P450 2C19 (P33261 whole entry): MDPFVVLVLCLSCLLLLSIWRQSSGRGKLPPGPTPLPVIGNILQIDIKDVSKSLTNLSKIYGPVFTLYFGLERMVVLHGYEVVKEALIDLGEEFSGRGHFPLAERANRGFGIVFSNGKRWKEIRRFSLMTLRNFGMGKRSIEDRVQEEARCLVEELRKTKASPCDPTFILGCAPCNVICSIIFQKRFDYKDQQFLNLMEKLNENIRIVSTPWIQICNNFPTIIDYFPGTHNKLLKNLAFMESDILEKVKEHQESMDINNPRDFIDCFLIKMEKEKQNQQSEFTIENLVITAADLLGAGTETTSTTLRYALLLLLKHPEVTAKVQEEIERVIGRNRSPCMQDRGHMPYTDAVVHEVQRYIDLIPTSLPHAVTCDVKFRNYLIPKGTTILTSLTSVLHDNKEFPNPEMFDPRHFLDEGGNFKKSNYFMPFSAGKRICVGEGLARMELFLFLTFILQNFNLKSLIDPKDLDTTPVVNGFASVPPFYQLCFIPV
Sequence of Cytochrome P450 2C9 (P11712 whole entry): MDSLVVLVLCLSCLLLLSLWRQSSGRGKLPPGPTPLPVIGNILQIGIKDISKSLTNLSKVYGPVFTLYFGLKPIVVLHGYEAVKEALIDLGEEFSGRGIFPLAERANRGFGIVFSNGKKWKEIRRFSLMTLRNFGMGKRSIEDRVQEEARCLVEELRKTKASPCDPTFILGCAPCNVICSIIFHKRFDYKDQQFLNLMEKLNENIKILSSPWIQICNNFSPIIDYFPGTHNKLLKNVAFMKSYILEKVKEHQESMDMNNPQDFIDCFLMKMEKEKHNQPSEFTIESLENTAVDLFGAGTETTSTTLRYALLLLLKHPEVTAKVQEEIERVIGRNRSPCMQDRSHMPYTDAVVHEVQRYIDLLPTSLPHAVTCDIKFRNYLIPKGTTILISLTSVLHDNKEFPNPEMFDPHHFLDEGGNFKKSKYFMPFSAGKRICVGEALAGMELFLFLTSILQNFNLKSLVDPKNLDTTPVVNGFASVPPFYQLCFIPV
Sequence of Cytochrome P450 2D6 (P10635 whole entry): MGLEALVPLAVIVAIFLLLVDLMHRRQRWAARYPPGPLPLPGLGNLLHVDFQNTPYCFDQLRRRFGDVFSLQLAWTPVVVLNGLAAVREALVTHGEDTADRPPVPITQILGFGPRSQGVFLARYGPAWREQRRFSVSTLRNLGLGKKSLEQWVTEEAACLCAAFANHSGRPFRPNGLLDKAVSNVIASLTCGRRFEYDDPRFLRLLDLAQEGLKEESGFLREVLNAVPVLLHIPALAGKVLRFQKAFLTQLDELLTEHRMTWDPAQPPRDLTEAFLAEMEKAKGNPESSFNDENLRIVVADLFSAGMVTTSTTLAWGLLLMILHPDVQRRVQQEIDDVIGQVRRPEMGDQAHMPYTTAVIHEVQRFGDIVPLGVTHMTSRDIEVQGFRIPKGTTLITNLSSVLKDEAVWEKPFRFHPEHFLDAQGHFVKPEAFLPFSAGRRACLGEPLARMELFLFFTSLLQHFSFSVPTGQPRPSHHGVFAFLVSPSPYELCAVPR

CNc1ncncc1-c1ccccc1C
AC50 [1]: 31.6 µM (inconclusive) | AC50 [2]: 12.6 µM (inconclusive)

COc1ccc(OC)c(N2C(=O)C(Cl)=C(N3CCCCC3)C2=O)c1
AC50 [3]: 11.8 µM (active) | EC50 [4]: 4.67 µM (active)

Cc1ccc(NC(=O)CN2C(=O)NC(C)(c3ccc(Cl)cc3)C2=O)c(Br)c1 (stereo not drawn)
CC50 [5]: 30.1 µM (active)

O=C(CN1C(=O)NC2(CCCCCC2)C1=O)N1CCN(S(=O)(=O)c2ccc(Cl)cc2)CC1
AC50 [6]: 17.8 µM (inconclusive) | AC50 [7]: 20 µM (inconclusive)

Cc1nn(Cc2ccc([N+](=O)[O-])cc2)c(=O)n1-c1cccc(F)c1
AC50 [1]: 25.1 µM (inconclusive) | AC50 [2]: 17.8 µM (inconclusive)

Cc1n[nH]c2c1C(c1ccsc1C)C(C#N)=C(N)O2 (stereo not drawn)
AC50 [3]: 10.1 µM (active) | EC50 [4]: 3.77 µM (active)

O=C1c2[nH]nc(-c3ccccc3O)c2C(c2cccc(Cl)c2)N1Cc1ccco1 (stereo not drawn)
AC50 [3]: 66.5 µM (active) | EC50 [4]: > 380 µM (inconclusive) | EC50 [8]: 15.8 µM (active)

Cc1ccc(-n2nnc3c(SCC(=O)NCC4CCCO4)ncnc32)cc1 (stereo not drawn)
AC50 [3]: 4.72 µM (active) | EC50 [4]: 4.23 µM (active)

CC12CC(NC(=O)N1c1cccc(C(=O)NCc3ccccc3)c1)c1ccccc1O2 (stereo not drawn)
AC50 [1]: 28.2 µM (inconclusive) | AC50 [2]: 25.1 µM (inconclusive)

O=C(CCl)Nc1ccc(N=Nc2ccccc2)cc1
AC50 [3]: 6.81 µM (active) | EC50 [4]: 2.18 µM (active)

COc1ccc(-n2c(C)cc(C=O)c2C)cc1Cl
AC50 [6]: 17.8 µM (inconclusive) | AC50 [2]: 14.1 µM (inconclusive) | AC50 [7]: 3.98 µM (inconclusive)

CCOc1c2ccc(C(=O)NCc3ccc4c(c3)OCO4)cc2nn1CC
AC50 [1]: 15.8 µM (inconclusive) | AC50 [2]: 8.91 µM (inconclusive)

Cc1n[nH]c2c1C(c1cccc(OC(=O)N3CCOCC3)c1)C(C#N)=C(N)O2 (stereo not drawn)
AC50 [3]: 31.2 µM (active) | EC50 [4]: 7.44 µM (active)

CCc1cc2c(c(CC)n1)CCC(=O)N2Cc1ccc(-c2ccccc2-c2nnn[nH]2)cc1
AC50 [1]: 10 µM (inconclusive) | AC50 [6]: 25.1 µM (inconclusive) | AC50 [9]: 20 µM (inconclusive)

O=c1c(-c2cccs2)nc2cnc(Oc3ccccc3)nc2n1C1CC1
AC50 [7]: 1.58 µM (inconclusive)

COc1ccc(C2C(C#N)=C(N)Oc3[nH]nc(C)c32)cc1Cn1nnc2ccccc21 (stereo not drawn)
AC50 [3]: 7.76 µM (active) | EC50 [4]: 3.87 µM (active)

CCOC(=O)CN1C(=O)N[C@@H](c2cccc(C(F)(F)F)c2)C(C(C)=O)=C1C
AC50 [3]: > 380 µM (inactive) | EC50 [4]: > 380 µM (inactive)

N#CCCn1[nH]c(-c2ccccc2)cc1=O
AC50 [3]: 5.47 µM (active) | EC50 [4]: 3.32 µM (active)

O=C(c1ccccc1)N1CCCC(c2ccc(Cl)cc2)=N1
CC50 [5]: 42.4 µM (active)
